From PubChem BioAssay AID330 (DTP/NCI, 2004)
Values joined by “and” are separate entries in the source; they are usually repeats but may differ in a detail not shown here. Equal values may be shown once. Inconclusive results and toxic doses are left out. Rule for the calls: active = survival T/C of 150% or more; inactive = T/C below 125% in these data. Numbered stars: 1 amine (or outer) side, 2 acyl side, 3 side chain; on linkers, the order of the positions; unused ones are H or OH. Peptide text beside a SMILES is read from it. γGlu = O=C(O)[CH](CCC(=O)[*:2])N[*:1]

System: P388 leukemia ip, CD2F1 mice, survival T/C
Experiment: NCI In Vivo Anticancer Drug Screen. Data for tumor model P388 Leukemia (intraperitoneal) in CD2F1 (CDF1) mice
Conditions: endpoint: median survival time, higher = longer survival
Procedure, shortened: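 Mice carrying the transplanted tumor received test compound or vehicle. Survival was recorded in each group, and the value is the treated-group measurement divided by that of the vehicle-treated control group.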

[1] = dose: 100.0 mg/kg/injection, schedule: Q01DX009 (ip), vehicle: saline with Tween-80
[2] = dose: 200.0 mg/kg/injection, schedule: Q01DX009 (ip), vehicle: saline with Tween-80
[3] = dose: 50.0 mg/kg/injection, schedule: Q01DX009 (ip), vehicle: saline with Tween-80
[4] = dose: 50.0 mg/kg/injection, schedule: Q01DX005 (ip), vehicle: Klucel (hydroxypropylcellulose) (HPC)
[5] = dose: 100.0 mg/kg/injection, schedule: Q01DX005 (ip), vehicle: Klucel (hydroxypropylcellulose) (HPC)
[6] = dose: 50.0 mg/kg/injection, schedule: Q01DX005 (ip), vehicle: saline
[7] = dose: 100.0 mg/kg/injection, schedule: Q01DX005 (ip), vehicle: saline
[8] = dose: 200.0 mg/kg/injection, schedule: Q01DX005 (ip), vehicle: saline
[9] = dose: 12.5 mg/kg/injection, schedule: Q01DX009 (ip), vehicle: saline
[10] = dose: 25.0 mg/kg/injection, schedule: Q01DX009 (ip), vehicle: saline

Measured: T/C

C/C(=N\NC(=S)N1CCCCCCCCCCCC1)c1ccccn1
inactive: dose: 6.25 mg/kg/injection, schedule: Q04DX003 (ip), vehicle: Klucel (hydroxypropylcellulose) (HPC) 101 % of control | dose: 12.5 mg/kg/injection, schedule: Q04DX003 (ip), vehicle: Klucel (hydroxypropylcellulose) (HPC) 100 % of control and 102 % of control and 117 % of control | dose: 25.0 mg/kg/injection, schedule: Q04DX003 (ip), vehicle: Klucel (hydroxypropylcellulose) (HPC) 100 % of control and 113 % of control and 120 % of control | dose: 50.0 mg/kg/injection, schedule: Q04DX003 (ip), vehicle: Klucel (hydroxypropylcellulose) (HPC) 93 % of control

FC(F)(F)C1(C(F)(F)F)O[Te]2(OC1(C(F)(F)F)C(F)(F)F)OC(C(F)(F)F)(C(F)(F)F)C(C(F)(F)F)(C(F)(F)F)O2
inactive: dose: 6.25 mg/kg/injection, schedule: Q01DX005 (ip), vehicle: Klucel (hydroxypropylcellulose) (HPC) 100 % of control | dose: 12.5 mg/kg/injection, schedule: Q01DX005 (ip), vehicle: Klucel (hydroxypropylcellulose) (HPC) 112 % of control

CCCCN(CCCC)CC(O)c1cc2ccc(C(F)(F)F)cc2c2cc(C(F)(F)F)ccc12 (configuration not stated)
inactive: dose: 6.25 mg/kg/injection, schedule: Q01DX009 (ip), vehicle: saline with Tween-80 93 % of control | dose: 12.5 mg/kg/injection, schedule: Q01DX009 (ip), vehicle: saline with Tween-80 94 % of control | dose: 25.0 mg/kg/injection, schedule: Q01DX009 (ip), vehicle: saline with Tween-80 88 % of control | [1] 100 % of control | [2] 99 % of control

O=C(/C(Br)=C/c1ccccc1)/C(Br)=C/c1ccccc1
inactive: dose: 12.5 mg/kg/injection, schedule: Q01DX001 (ip), vehicle: saline with Tween-80 100 % of control | dose: 25.0 mg/kg/injection, schedule: Q01DX001 (ip), vehicle: saline with Tween-80 100 % of control | dose: 50.0 mg/kg/injection, schedule: Q01DX001 (ip), vehicle: saline with Tween-80 88 % of control

O=C(/C=C/c1ccc2c(c1)OCO2)C1CC1
inactive: [3] 92 % of control | [1] 92 % of control | [2] 96 % of control

C(CCC[Si]12OCCN(CCO1)CCO2)CC[Si]12OCCN(CCO1)CCO2
inactive: [4] 102 % of control | [5] 93 % of control | dose: 200.0 mg/kg/injection, schedule: Q01DX005 (ip), vehicle: Klucel (hydroxypropylcellulose) (HPC) 91 % of control

CC1=C[P+](c2ccccc2)(c2ccccc2)C=C(c2ccccc2)O1
inactive: dose: 3.12 mg/kg/injection, schedule: Q01DX005 (ip), vehicle: saline 105 % of control | dose: 6.25 mg/kg/injection, schedule: Q01DX005 (ip), vehicle: saline 122 % of control and 123 % of control | dose: 12.5 mg/kg/injection, schedule: Q01DX005 (ip), vehicle: saline 118 % of control

COc1cc2c(cc1OC)C1CC3(CCN1CC2)CC(=O)NC3=O (configuration not stated)
inactive: [6] 97 % of control | [7] 99 % of control | [8] 90 % of control

ON=C1C2C=CC=CC1C=C2
inactive: dose: 6.25 mg/kg/injection, schedule: Q01DX009 (ip), vehicle: saline 90 % of control | [9] 96 % of control | [10] 90 % of control

COc1c(OC2OC(CO)C(O)C(O)C2O)cc2occ(-c3ccc4c(c3)OCO4)c(=O)c2c1O (configuration not stated)
inactive: dose: 4.0 mg/kg/injection, schedule: Q01DX005 (ip), vehicle: saline with Tween-80 94 % of control | dose: 8.0 mg/kg/injection, schedule: Q01DX005 (ip), vehicle: saline with Tween-80 101 % of control | dose: 16.0 mg/kg/injection, schedule: Q01DX005 (ip), vehicle: saline with Tween-80 101 % of control | dose: 32.0 mg/kg/injection, schedule: Q01DX005 (ip), vehicle: saline with Tween-80 95 % of control

CCC/C(=N\O)C(O)(CCC)CCC
inactive: [3] 89 % of control | [1] 89 % of control | [2] 89 % of control

NC(CCC(=O)NC(CCC(=O)O)C(=O)NC(CCC(=O)O)C(=O)O)C(=O)O (stereo not drawn) (γGlu-Glu-Glu-OH; configuration not given here)
inactive: [6] 98 % of control | [7] 95 % of control | [8] 102 % of control

CC/C(=N\NC(=S)SC)c1ccccn1
inactive: dose: 6.25 mg/kg/injection, schedule: Q01DX005 (ip), vehicle: saline with Tween-80 106 % of control | dose: 12.5 mg/kg/injection, schedule: Q01DX005 (ip), vehicle: saline with Tween-80 94 % of control and 96 % of control and 97 % of control | dose: 25.0 mg/kg/injection, schedule: Q01DX005 (ip), vehicle: saline with Tween-80 105 % of control and 110 % of control and 94 % of control

O=C1CSC(=S)N1c1ccccc1C(F)(F)F
inactive: dose: 50.0 mg/kg/injection, schedule: Q01DX009 (ip), vehicle: suspension in saline 91 % of control | dose: 100.0 mg/kg/injection, schedule: Q01DX009 (ip), vehicle: suspension in saline 96 % of control | dose: 200.0 mg/kg/injection, schedule: Q01DX009 (ip), vehicle: suspension in saline 93 % of control

CCCCCCC(=O)/C=C/c1ccc(OC(=O)c2ccc(C)cc2)cc1
inactive: [3] 95 % of control | [1] 93 % of control | [2] 93 % of control

O=C(O)CCOCCC(=O)O
inactive: [6] 97 % of control | [7] 97 % of control | [8] 97 % of control

CCCCCC(Nc1nncs1)Nc1nncs1
inactive: dose: 60.0 mg/kg/injection, schedule: Q01DX005 (ip), vehicle: saline with Tween-80 94 % of control | dose: 120.0 mg/kg/injection, schedule: Q01DX005 (ip), vehicle: saline with Tween-80 96 % of control | dose: 240.0 mg/kg/injection, schedule: Q01DX005 (ip), vehicle: saline with Tween-80 105 % of control

CNc1nc(OC)nc2c1cnn2C1CCCCO1 (configuration not stated)
inactive: dose: 100.0 mg/kg/injection, schedule: Q04DX002 (ip), vehicle: saline with Tween-80 97 % of control | dose: 200.0 mg/kg/injection, schedule: Q04DX002 (ip), vehicle: saline with Tween-80 100 % of control | dose: 400.0 mg/kg/injection, schedule: Q04DX002 (ip), vehicle: saline with Tween-80 94 % of control

CCN=C(CC(=O)C12CC3CC(CC(C3)C1)C2)N(CC)CC
inactive: [9] 109 % of control | [10] 112 % of control | dose: 50.0 mg/kg/injection, schedule: Q01DX009 (ip), vehicle: saline 100 % of control and 103 % of control

O=C(N1CCN(c2ccccc2)C1=O)N1CCN(c2ccccc2)C1=O
inactive: [3] 98 % of control | [1] 95 % of control | [2] 91 % of control

CC(C)(C)OC(=O)NCCCCC(NC(=O)OCC1c2ccccc2-c2ccccc21)C(=O)O (configuration not stated)
inactive: [4] 109 % of control | [5] 93 % of control

COC(=O)/C(C1=C(Br)C(=O)C(C)=C(Br)C1=O)=C1/CCCN1
inactive: dose: 9.37 mg/kg/injection, schedule: Q01DX005 (ip), vehicle: Klucel (hydroxypropylcellulose) (HPC) 112 % of control | dose: 9.37 mg/kg/injection, schedule: Q04DX002 (ip), vehicle: Klucel (hydroxypropylcellulose) (HPC) 101 % of control | dose: 18.75 mg/kg/injection, schedule: Q01DX005 (ip), vehicle: Klucel (hydroxypropylcellulose) (HPC) 117 % of control | dose: 18.75 mg/kg/injection, schedule: Q04DX002 (ip), vehicle: Klucel (hydroxypropylcellulose) (HPC) 92 % of control | dose: 37.5 mg/kg/injection, schedule: Q01DX005 (ip), vehicle: Klucel (hydroxypropylcellulose) (HPC) 112 % of control | dose: 37.5 mg/kg/injection, schedule: Q04DX002 (ip), vehicle: Klucel (hydroxypropylcellulose) (HPC) 100 % of control | dose: 75.0 mg/kg/injection, schedule: Q04DX002 (ip), vehicle: Klucel (hydroxypropylcellulose) (HPC) 104 % of control

CCCCCCCCCCCCCCCCCC(=O)NCNC(=O)CCCCCCCCCCCCCCCCC
inactive: dose: 4.68 mg/kg/injection, schedule: Q01DX009 (ip), vehicle: saline with Tween-80 100 % of control | dose: 9.37 mg/kg/injection, schedule: Q01DX009 (ip), vehicle: saline with Tween-80 100 % of control | dose: 9.37 mg/kg/injection, schedule: Q04DX003 (ip), vehicle: saline 100 % of control | dose: 18.75 mg/kg/injection, schedule: Q01DX009 (ip), vehicle: saline with Tween-80 90 % of control | dose: 18.75 mg/kg/injection, schedule: Q04DX003 (ip), vehicle: saline 95 % of control
